Measured values from patent publication US6737383B1, “Herbicidal oxadiazolidines” (priority 1999, dated 2004).

Experiments:
sugar beet = experiment: Test B pre/postemergence sugar beet; type: in vivo, Beta vulgaris
Procedure, shortened: (§1)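 Herbicidal effect was estimated by eye on a ten-point control scale after plants spent twelve to sixteen days in a greenhouse following soil or foliar treatment. Foliar sprays targeted plants at one to four leaves; all doses were formulated in a non-phytotoxic solvent with surfactant.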

rape = experiment: Test B pre/postemergence rape; type: in vivo, Brassica napus
Procedure, shortened: as §1

wild oat = experiment: Test B pre/postemergence wild oat; type: in vivo, Avena fatua
Procedure, shortened: as §1

purple nutsedge = experiment: Test B pre/postemergence purple nutsedge; type: in vivo, Cyperus rotundus
Procedure, shortened: as §1

blackgrass = experiment: Test B pre/postemergence blackgrass; type: in vivo, Alopecurus myosuroides
Procedure, shortened: as §1

rice = experiment: Test B flood test rice; type: in vivo, Oryza sativa
Procedure, shortened: (§2)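 Flood test on plants grown to the 2-leaf stage; treated plants kept in greenhouse twelve to sixteen days, then visually rated against controls on a 0 (no effect) to 10 (complete control) scale.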

smallflower flatsedge = experiment: Test B flood test smallflower flatsedge; type: in vivo, Cyperus difformis
Procedure, shortened: as §2

corn = experiment: Test B pre/postemergence corn; type: in vivo, Zea mays
Procedure, shortened: as §1

bamyardgrass = experiment: Test B flood test barnyardgrass; type: in vivo, Echinochloa crus-galli
Procedure, shortened: as §2

bedstraw = experiment: Test B pre/postemergence bedstraw; type: in vivo, Galium aparine
Procedure, shortened: as §1

wheat = experiment: Test B pre/postemergence wheat; type: in vivo, Triticum aestivum
Procedure, shortened: as §1

surinam grass = experiment: Test B pre/postemergence surinam grass; type: in vivo, Brachiaria decumbens
Procedure, shortened: as §1

velvetleaf = experiment: Test B pre/postemergence velvetleaf; type: in vivo, Abutilon theophrasti
Procedure, shortened: as §1

crabgrass = experiment: Test B pre/postemergence crabgrass; type: in vivo, Digitaria sanguinalis
Procedure, shortened: as §1

giant foxtail = experiment: Test B pre/postemergence giant foxtail; type: in vivo, Setaria faberii
Procedure, shortened: as §1

duck salad = experiment: Test B flood test duck salad; type: in vivo, Heteranthera limosa
Procedure, shortened: as §2

[1] = Postemergence, Rate 125 g/ha, scale of 0 to 10 where 0 is no effect and 10 is complete control
[2] = Preemergence, Rate 62 g/ha, scale of 0 to 10 where 0 is no effect and 10 is complete control
[3] = Preemergence, Rate 125 g/ha, 0 is no effect, 10 is complete control
[4] = Preemergence, Rate 250 g/ha, scale 0 to 10, 0 is no effect, 10 is complete control
[5] = Preemergence, Rate 500 g/ha, scale 0 to 10 (0 no effect, 10 complete control)
[6] = Rate 62 g/ha, Postemergence, scale of 0 to 10 where 0 is no effect and 10 is complete control
[7] = Rate 250 g/ha, Postemergence, scale 0 to 10, 0 is no effect, 10 is complete control
[8] = Rate 500 g/ha, Postemergence, scale 0 to 10
[9] = Rate 62 g/ha, headed Pre-emergence (flood test species), scale 0 to 10 (0 no effect, 10 complete control)
[10] = Rate 125 g/ha, Pre-emergence, flood test species, scale 0 to 10 where 0 is no effect and 10 is complete control
[11] = Rate 250 g/ha, Pre-emergence, flood-test species, scale 0 to 10, 0 is no effect, 10 is complete control
[12] = Rate 500 g/ha, headed Pre-emergence (flood test species), scale 0 to 10 (0 no effect, 10 complete control)

For `CCN(Cc1ccccc1)C(=O)n1oc(=O)n(C(C)C)c1=O` [Compound 166], the “Sugarbeets plant response rating” value (sugar beet; [1]) was 0, the “Sugarbeets plant response rating” value (sugar beet; [2]) was 0 and the “Sugarbeets plant response rating (0 to 10 scale)” value (sugar beet; [3]) was 0. The “Sugarbeets plant response rating” value (sugar beet; [4]) was 0, the “Sugarbeets plant response rating” value (sugar beet; [5]) was 0 and the “Sugarbeets plant response rating” value (sugar beet; [6]) was 0. The “Plant response rating, Sugarbeets” value (sugar beet; [7]) was 0, the “Sugarbeets plant response rating” value (sugar beet; [8]) was 0 and the “Rape plant response rating” value (rape; [1]) was 0. For the same compound, the “Rape plant response rating” value (rape; [2]) was 0, the “Rape plant response rating (0 to 10 scale)” value (rape; [3]) was 0 and the “Rape plant response rating” value (rape; [4]) was 0. For the same compound, the “Rape plant response rating” value (rape; [5]) was 0, the “Rape plant response rating” value (rape; [6]) was 0 and the “Plant response rating, Rape” value (rape; [7]) was 0. The “Wild oats plant response rating” value (wild oat; [2]) was 0, the “Wild oats plant response rating (0 to 10 scale)” value (wild oat; [3]) was 0 and the “Wild oats plant response rating” value (wild oat; [4]) was 0. The “Wild oats plant response rating” value (wild oat; [5]) was 2, the “Plant response rating, Wild oats” value (wild oat; [7]) was 0 and the “Wild oats plant response rating” value (wild oat; [8]) was 2. For the same compound, the “Nutsedge plant response rating” value (purple nutsedge; [1]) was 0, the “Nutsedge plant response rating (0 to 10 scale)” value (purple nutsedge; [3]) was 0 and the “Nutsedge plant response rating” value (purple nutsedge; [4]) was 0. For the same compound, the “Nutsedge plant response rating” value (purple nutsedge; [5]) was 0, the “Nutsedge plant response rating” value (purple nutsedge; [6]) was 0 and the “Plant response rating, Nutsedge” value (purple nutsedge; [7]) was 0. For the same compound, the “Nutsedge plant response rating” value (purple nutsedge; [8]) was 0, the “Blackgrass plant response rating” value (blackgrass; [1]) was 4 and the “Blackgrass plant response rating” value (blackgrass; [2]) was 0. For the same compound, the “Blackgrass plant response rating (0 to 10 scale)” value (blackgrass; [3]) was 0, the “Blackgrass plant response rating” value (blackgrass; [4]) was 4 and the “Blackgrass plant response rating” value (blackgrass; [5]) was 5. For the same compound, the “Blackgrass plant response rating” value (blackgrass; [6]) was 0, the “Plant response rating, Blackgrass” value (blackgrass; [7]) was 7 and the “Blackgrass plant response rating” value (blackgrass; [8]) was 8. The “Rice plant response rating” value (rice; [9]) was 0, the “Rice plant response rating” value (rice; [10]) was 0 and the “Rice plant response rating” value (rice; [11]) was 0. For the same compound, the “Plant response rating, Rice” value (rice; [12]) was 0, the “S. Flatsedge plant response rating” value (smallflower flatsedge; [9]) was 0 and the “S. Flatsedge plant response rating” value (smallflower flatsedge; [10]) was 0. For the same compound, the “S. Flatsedge plant response rating” value (smallflower flatsedge; [11]) was 0, the “S. Flatsedge plant response rating” value (smallflower flatsedge; Rate 500 g/ha, Pre-emergence, flood test species, scale 0 to 10 (0 no effect, 10 complete control)) was 0 and the “Corn plant response rating” value (corn; [1]) was 0. The “Corn plant response rating” value (corn; [2]) was 0, the “Corn plant response rating (0 to 10 scale)” value (corn; [3]) was 0 and the “Corn plant response rating” value (corn; [4]) was 0. The “Corn plant response rating” value (corn; [5]) was 0, the “Corn plant response rating” value (corn; [6]) was 0 and the “Plant response rating, Corn” value (corn; [7]) was 0. The “Corn plant response rating” value (corn; [8]) was 0, the “Barnyardgrass plant response rating” value (bamyardgrass; [9]) was 0 and the “Barnyardgrass plant response rating” value (bamyardgrass; [10]) was 0. The “Barnyardgrass plant response rating” value (bamyardgrass; [11]) was 0, the “Plant response rating, Barnyardgrass” value (bamyardgrass; [12]) was 0 and the “Bedstraw plant response rating” value (bedstraw; [1]) was 0. The “Bedstraw plant response rating” value (bedstraw; [2]) was 0, the “Bedstraw plant response rating (0 to 10 scale)” value (bedstraw; [3]) was 0 and the “Bedstraw plant response rating” value (bedstraw; [4]) was 0. For the same compound, the “Bedstraw plant response rating” value (bedstraw; [5]) was 0, the “Bedstraw plant response rating” value (bedstraw; [6]) was 0 and the “Plant response rating, Bedstraw” value (bedstraw; [7]) was 1. For the same compound, the “Bedstraw plant response rating” value (bedstraw; [8]) was 5, the “Wheat plant response rating” value (wheat; [2]) was 0 and the “Wheat plant response rating (0 to 10 scale)” value (wheat; [3]) was 0. For the same compound, the “Wheat plant response rating” value (wheat; [4]) was 0, the “Wheat plant response rating” value (wheat; [5]) was 0 and the “Plant response rating, Wheat” value (wheat; [7]) was 0. The “Wheat plant response rating” value (wheat; [8]) was 3, the “B. signalgrass plant response rating” value (surinam grass; [1]) was 0 and the “B. signalgrass plant response rating” value (surinam grass; [2]) was 0. For the same compound, the “B. signalgrass plant response rating (0 to 10 scale)” value (surinam grass; [3]) was 0, the “B. signalgrass plant response rating” value (surinam grass; [4]) was 0 and the “B. signalgrass plant response rating” value (surinam grass; [5]) was 4. The “B. signalgrass plant response rating” value (surinam grass; [6]) was 0, the “Plant response rating, B. signalgrass” value (surinam grass; [7]) was 0 and the “B. signalgrass plant response rating” value (surinam grass; Rate 500 g/ha, Postemergence, scale 0 to 10, 0 no effect, 10 complete control) was 0. For the same compound, the “Velvetleaf plant response rating” value (velvetleaf; [2]) was 0, the “Velvetleaf plant response rating (0 to 10 scale)” value (velvetleaf; [3]) was 0 and the “Velvetleaf plant response rating” value (velvetleaf; [4]) was 5. For the same compound, the “Velvetleaf plant response rating” value (velvetleaf; [5]) was 6, the “Plant response rating, Velvetleaf” value (velvetleaf; [7]) was 0 and the “Velvetleaf plant response rating” value (velvetleaf; [8]) was 0. The “Crabgrass plant response rating” value (crabgrass; [1]) was 1, the “Crabgrass plant response rating” value (crabgrass; [2]) was 4 and the “Crabgrass plant response rating (0 to 10 scale)” value (crabgrass; [3]) was 4. For the same compound, the “Crabgrass plant response rating” value (crabgrass; [4]) was 7, the “Crabgrass plant response rating” value (crabgrass; [5]) was 7 and the “Crabgrass plant response rating” value (crabgrass; [6]) was 0. The “Plant response rating, Crabgrass” value (crabgrass; [7]) was 3, the “Crabgrass plant response rating” value (crabgrass; [8]) was 4 and the “Giant foxtail plant response rating” value (giant foxtail; [1]) was 0. For the same compound, the “Giant foxtail plant response rating” value (giant foxtail; [2]) was 3, the “Giant foxtail plant response rating (0 to 10 scale)” value (giant foxtail; [3]) was 5 and the “Giant foxtail plant response rating” value (giant foxtail; [4]) was 5. The “Giant foxtail plant response rating” value (giant foxtail; [5]) was 7, the “Giant foxtail plant response rating” value (giant foxtail; [6]) was 0 and the “Plant response rating, Giant foxtail” value (giant foxtail; [7]) was 1. The “Giant foxtail plant response rating” value (giant foxtail; [8]) was 4, the “Ducksalad plant response rating” value (duck salad; [9]) was 0 and the “Ducksalad plant response rating” value (duck salad; [10]) was 0. For the same compound, the “Ducksalad plant response rating” value (duck salad; [11]) was 0 and the “Plant response rating, Ducksalad” value (duck salad; [12]) was 0.
